Assay results reported in patent US12528805B2, “Solid forms of emetine” (Acer Therapeutics, Inc., priority 2020, dated 2026).
Where a name gives a salt, the structure may show the parent alone.

Columns and labels:
[1] = Thermodynamic solubility study (HPLC of mother liquors); assay type: physicochemical; conditions: thermodynamic from solid
Protocol: To obtain accurate solubility and residual solid form data for amorphous Compound I dihydrochloride, thermodynamic solubility studies were carried out on amorphous input material in selected solvent systems at 50° C. and 5° C. (Table 6).

[2] = Solid form stability on storage (XRPD re-analysis); assay type: physicochemical; conditions: stored at 40° C./75% RH for 22 h
Protocol: The solids were dried under vacuum at ambient temperature (about 23° C.) for 17 h. The solids on the XRPD plate were stored at 40° C./75% RH for 22 h then re-analyzed. Amorphous and a mixture of Compound I dihydrochloride Form 2 and Form 6 were obtained (Table 7).
The solids were isolated by filtration after a total of 27.5 h at 5° C. and washed with 0.6 mL of cold acetone or 3×0.6 mL of cold heptane. The solids were dried under vacuum at ambient temperature (about 23° C.) for 17 h. The solids on the XRPD plate were stored at 40° C./75% RH for 22 h then re-analyzed by XRPD. Results, which are summarized in Table 8, show mixtures of Compound I dihydrochloride Forms 5 and 6, 5, 2 and 1, and 2 were obtained.
1.0 mL of water was added to approximately 300 mg of Compound I dihydrochloride Form 1. The resulting mixture was magnetically stirred at 50° C. over about 15 min, then stirred at 50° C. for 0.25 h. The solution was polish filtered (0.45 μm PTFE filter) into a 2 mL push-cap vial and then stirred at 50° C. for 0.25 h, prior to cooling to 5° C. at 0.1° C./min. After 62 h at 5° C., the experiment was sub-sampled and the solid was analyzed by XRPD. The material on the XRPD plate was dried under vacuum at 35° C. under a stream of wet nitrogen (20-38% RH) for about 9 h and then re-analyzed by XRPD. The material on the XRPD plate was stored at 25° C./60% RH for 22 h and then re-analyzed by XRPD. After a total of 87 h at 5° C., solids were isolated by centrifugation (0.22 μm nylon filter) and analyzed by XRPD. The solids were air-dried at ambient temperature (about 22° C.) for 24 h.
Small-scale crystallization Experiment 7 was sub-sampled prior to ASA and after ASA was complete, with solids isolated by centrifugation (0.22 μm nylon filter) and analyzed by XRPD.
Approximately 10 g of Compound I dihydrochloride Form 1 was dissolved in 67 mL of ethanol:water 99:1 v/v at about 60° C. (initial concentration: 150 mg/mL). Polish filtration was carried out (0.2 μm PTFE filter). The solution was transferred to a 250 mL vessel at 60° C. and stirred at 50° C. (solution temperature) and 300 rpm for about 5 min. The solution was seeded with about 100 mg (1 wt. %) of Compound I dihydrochloride Form 2, isolated from small-scale crystallization Experiments 12 and 13, from example 4 above. The seed dissolved rapidly. Anti-solvent addition of 10 mL of heptane (1 volume) was carried out at 2 vol/h (Heptane content of 13%). The solution was re-seeded with a further 100 mg (1 wt. %) of Form 2, isolated from small-scale crystallization Experiment 12. The seed persisted and a slurry formed. The slurry was stirred at 50° C. for 1 h and then anti-solvent addition of 131 mL of heptane at 1.5 vol/h was carried out, to reach 60% heptane. […] An additional 2 volumes of ethanol:water 99:1 v/v was added at the beginning of the ASA to mobilize the slurry. Once ASA was complete, the slurry was cooled to 5° C. at 0.1° C./min. The experiment was sub-sampled after about 2 h at 5° C. The slurry was thick but mixing. After 3.5 h at 5° C., an additional 3.6 mL of water was added to increase the water content to 2% (ethanol:water:heptane ratio of 39:2:59 v/v/v). The experiment was sub-sampled again after 2 h at 5° C. with additional water. After a total of 10 h at 5° C., solids were isolated by filtration and washed with 2 volumes of cold (5° C.) ethanol:heptane 40:60 v/v. The solids were filtered and dried under vacuum at ambient temperature (about 21° C.) for 14.5 h, then analyzed by XRPD.

CC[C@H]1CN2CCc3cc(OC)c(OC)cc3[C@@H]2C[C@@H]1C[C@H]1NCCc2cc(OC)c(OC)cc21 [Amorphous Compound I dihydrochloride]
solubility thermodynamic at 23 h ([1]; organic solvent or mixture, 2-propanol:heptane 70:30 v/v, 5° C.): < 10 mg/mL | solubility thermodynamic at 23 h ([1]; organic solvent or mixture, 2-propanol:heptane 70:30 v/v, 50° C.): ~20 mg/mL | solubility thermodynamic at 23 h ([1]; organic solvent or mixture, 2-propanol:heptane 90:10 v/v, 5° C.): 10 to 40 mg/mL | solubility thermodynamic at 23 h ([1]; organic solvent or mixture, 2-propanol:heptane 90:10 v/v, 50° C.): 40 to 115 mg/mL | solubility thermodynamic at 23 h ([1]; organic solvent or mixture, 2-propanol:water 95:5 v/v, 5° C.): 10 to 40 mg/mL | solubility thermodynamic at 23 h ([1]; organic solvent or mixture, 2-propanol:water 95:5 v/v, 50° C.): 40 to 115 mg/mL | solubility thermodynamic at 23 h ([1]; organic solvent or mixture, 2-propanol:water 99:1 v/v, 5° C.): 10 to 40 mg/mL | solubility thermodynamic at 23 h ([1]; organic solvent or mixture, 2-propanol:water 99:1 v/v, 50° C.): 40 to 115 mg/mL | solubility thermodynamic at 23 h ([1]; organic solvent or mixture, 2-propanol, 5° C.): 10 to 40 mg/mL | solubility thermodynamic at 23 h ([1]; organic solvent or mixture, 2-propanol, 50° C., experiment remained unsaturated): > 215 mg/mL | solubility thermodynamic at 23 h ([1]; organic solvent or mixture, acetone:water 60:40 v/v, 5° C., experiment remained unsaturated): > 125 mg/mL | solubility thermodynamic at 23 h ([1]; organic solvent or mixture, acetone:water 60:40 v/v, 50° C., experiment remained unsaturated): > 215 mg/mL | solubility thermodynamic at 23 h ([1]; organic solvent or mixture, acetone:water 70:30 v/v, 5° C., experiment remained unsaturated): > 125 mg/mL | solubility thermodynamic at 23 h ([1]; organic solvent or mixture, acetone:water 70:30 v/v, 50° C., experiment remained unsaturated): > 215 mg/mL | solubility thermodynamic at 23 h ([1]; organic solvent or mixture, acetone:water 90:10 v/v, 5° C.): 10 to 40 mg/mL | solubility thermodynamic at 23 h ([1]; organic solvent or mixture, acetone:water 90:10 v/v, 50° C.): 40 to 115 mg/mL | solubility thermodynamic at 23 h ([1]; organic solvent or mixture, ethanol:heptane 60:40 v/v, 5° C.): < 10 mg/mL | solubility thermodynamic at 23 h ([1]; organic solvent or mixture, ethanol:heptane 60:40 v/v, 50° C.): 40 to 115 mg/mL | solubility thermodynamic at 23 h ([1]; organic solvent or mixture, ethanol:heptane 80:20 v/v, 5° C.): 10 to 40 mg/mL | solubility thermodynamic at 23 h ([1]; organic solvent or mixture, ethanol:heptane 80:20 v/v, 50° C., experiment remained unsaturated): > 215 mg/mL | solubility thermodynamic at 23 h ([1]; organic solvent or mixture, ethanol, 5° C.): 10 to 40 mg/mL | solubility thermodynamic at 23 h ([1]; organic solvent or mixture, ethanol, 50° C., experiment remained unsaturated): > 215 mg/mL | solubility thermodynamic at 23 h ([1]; water, 5° C.): 65 mg/mL | solubility thermodynamic at 23 h ([1]; water, 50° C., experiment remained unsaturated): > 215 mg/mL | Solid form by XRPD after storage [2]: amorphous Compound I dihydrochloride was obtained
